Data: patent publication EP0417631A2, “Condensed diazepinones, process for their preparation, and medicaments containing these compounds” (Dr. Karl Thomae GmbH, priority 1989, dated 1991)

Tested on: M-Rezeptoren der Bronchien, des Herzens und der Harnblase
Experiment: Effect on M receptors of bronchi, heart and urinary bladder of anaesthetised guinea pigs (acetylcholine-induced bronchoconstriction, bradycardia, bladder tension)
Format: in vivo, Meerschweinchen
From the text: 1. Wirkung auf M-Rezeptoren der Bronchien, des Herzens und der Harnblase anaesthetisierter Meerschweinchen
Meerschweinchen beiderlei Geschlechts (550-600 g Körpergewicht) wurden mit Urethan (1,4 gikg, i.p.) anaesthetisiert. Eine Kanüle wurde zur Injektion der Wirkstoffe in die Jugularvene eingeführt. 220 1.U."kg Heparin wurden intravenös injiziert. Es wurde eine Kanüle in die Trachea eingeführt; die Tiere wurden künstlich mit sauerstoffangereicherter Luft mittels einer positiven Druckpumpe (Braun-Melsungen) bei einer Rate von 80 Schlägen pro Minute beatmet. Ein Ast der Trachealkanüle wurde mit einem Wassermanometer von 10 cm Höhe verbunden. Das Beatmungsvolumen wurde so eingestellt, daß der maximale intratracheale Druck während der Beatmung gerade den Druck einer 10 cm-Wassersäule erreichte.
Die Werte wurden mit einem IFD Aufnahmegerät registriert. Vor dem Versuch wurde die Trachea für eine kurze Zeit abgeklemmt, um den maximal möglichen Grad der Bronchokonstriktion zur Kalibrierung zu erzeugen. […] Die Herzfrequenz wurde mit einem Frequenzmesser, der durch arterielle Pulswellen ausgelöst wird, gemessen.
Es wurde ein kleiner medianer Bauchschnitt gesetzt und die Harnblase an einem Kraft-Transducer unter einer Ruhespannung von 1 Gramm angebunden.
Die zu testenden Wirksubstanzen wurden über die Jugularvene injiziert, 5 Minuten später wurde die Spannungszunahme der Blase (in Gramm), der Bronchialwiderstand (in %) und die Abnahme der Herzfrequenz (Schläge pro Minute) nach Gabe von Acetylcholin (50 ug/kg i.v. und i.a.) gemessen. Es wurden dosis-abhängige Kurven durch Wiedergabe der prozentualen Hemmung der Bronchokonstriktion, Bradycardie und der Spannungszunahme der Blase gegen den Logarithmus der Dosis (mol/kg) der zu untersuchenden Wirkstoffe aufgezeichnet. Die Ergebnisse werden angegeben als Mittel- werte (n=4-6). Ergebnisse siehe Tabelle I.

[1] = qualitative statement on reference substances, summing up the tests of Tabelle I-III

Row | Structure (SMILES) | Selektivität (glatte Muskulatur gegenüber Herzfrequenz oder Speichelsekretion) [1] | Selektivität (glatte Muskulatur gegenüber Herzfrequenz oder Speichelsekretion) (in vivo)
1 | CN1CCN(CC(=O)N2c3ccccc3C(=O)Nc3cccnc32)CC1 [Y, 5,11-Dihydro-11-[(4-methyl-1-piperazinyl)acetyl]-6H-pyrido[2,3-b][1,4]benzodiazepin-6-on] | keine Selektivität | 
2 | CCN(CC)CC1CCCCN1CC(=O)N1c2ccccc2C(=O)Nc2cccnc21 (stereo not drawn) [X, 11-[[2-[(Diethylamino)methyl]-1-piperidinyl]acetyl]-5,11-dihydro-6H-pyrido[2,3-b][1,4]benzodiazepin-6-on] | höhere Wirksamkeit auf kardiale Muskarinrezeptoren | 
3 | CN1C2CCC1CC(OC(=O)C(CO)c1ccccc1)C2 (racemic) [Z, Atropin] |  | keine Selektivität
